Drawing on patent US20250270246A1, “LINCOSAMIDES AND USES THEREOF” (President and Fellows of Harvard College, priority 2022, published 2025), this text covers MIC for eight compounds.

Counter-ions that a name gives are not always drawn. Like-named read-outs stand apart in the source and are kept apart here.

Holding throughout (assay): MIC by broth microdilution (CLSI)
What all share (assay type): cell-based
(In broth dilution the organism is exposed to a series of concentrations in liquid medium.)

Assay [1] has as its system A. baumannii ATCC 19606 (HAV#010). Particulars: Acinetobacter baumannii, ATCC19606, 24 h, HAV#010, ATCC 19606; CaMHB, 24 h incubation; read-out: MIC A. baumannii ATCC 19606. The protocol: (§1) Minimum inhibitory concentrations (MICs) were determined by the broth microdilution method following the Clinical and Laboratory Standards Institute (CLSI) guidelines. Test organisms consisted of standard reference strains from the American Type Culture Collection (ATCC; Manassa, VA, USA) and clinical isolates obtained from JMI Laboratories Inc. (North Liberty, IA, USA), Micromyx repository (MMX; Kalamazoo, MI, USA), and Massachusetts Eye and Ear Hospital (Boston, USA). Before the start of the MIC experiment, standard and test compound stock solutions were prepared in dimethyl sulfoxide (DMSO, Aldrich D2650) at a stock concentration of 2,560 μg/mL. The compound concentration range typically employed for each experiment was 64-0.06 μg/mL (2.5% final DMSO concentration). Iboxamycin was used as a comparator in all experiments. All bacterial strains were sub-cultured on blood agar plates (tryptic soy agar with 5% sheep blood, Hardy Diagnostics) and incubated overnight at 35° C. Organisms were suspended in cation-adjusted Mueller-Hinton broth (CaMHB, BD 212322) and optical density was adjusted to 0.5 McFarland standard. Suspensions were further diluted to obtain a final inoculum of 5×10^5 CFU/mL for broth microdilution experiments. The minimum concentration of compound required to inhibit visible bacterial growth after 24 h of incubation was recorded as the MIC in μg/mL. MICs for P. aeruginosa were recorded in cation-adjusted Mueller-Hinton broth which had been pre-treated with Chelex 100 ion exchange resin according to procedures reported in Ito et al. Antimicrob Agents Chemother (2016) 60 (12), 7396-7401.

The subject of assay [2] is E. coli ATCC 25922 (HAV#006). Particulars: Escherichia coli, ATCC25922, 24 h, read-out: MIC E. coli ATCC 25922. As for the experimental part: as §1
The next assay relates to E. coli lptD mutant. Particulars: Escherichia coli, 24 h, read-out: MIC E. coli lptD mutant, lptD mutant / ΔlptD mutant; CaMHB, 24 h incubation. As for the experimental part: as §1
The next assay deals with E. coli ΔtolC. Particulars: Escherichia coli, 24 h, read-out: MIC E. coli ΔtolC, ΔtolC; CaMHB, 24 h incubation. As for the experimental part:
as §1

The subject of assay [3] is E. faecalis ATCC 29212 (HAV#005). Particulars: Enterococcus faecalis, ATCC29212, 24 h, read-out: MIC E. faecalis ATCC 29212. The protocol: as §1
The next assay has as its system E. faecium JMI-990536. Particulars: Enterococcus faecium, JMI990536, 24 h, read-out: MIC E. faecium JMI-990536. As for the experimental part: as §1
The test system of another assay is K. pneumoniae JMI-991193. Particulars: Klebsiella pneumoniae, JMI991193, 24 h, read-out: MIC K. pneumoniae JMI-991193. As for the experimental part:
as §1

Assay [4] deals with S. aureus ATCC 29213 (HAV#001). Particulars: Staphylococcus aureus, ATCC29213, 24 h, read-out: MIC S. aureus ATCC 29213. As for the experimental part: as §1
A further assay has as its system S. aureus Clinical (cfr). Particulars: Staphylococcus aureus, 24 h, read-out: MIC S. aureus Clinical (cfr). The protocol:
as §1

For the next assay, the system named is S. aureus MMX 3035. Particulars: Staphylococcus aureus, MMX3035, 24 h, read-out: MIC S. aureus MMX 3035. As for the experimental part: as §1
[5] abbreviates: HAV#006, ATCC 25922, CaMHB, 24 h incubation.
Where [6] appears, read: HAV#005, ATCC 29212, CaMHB, 24 h incubation.
The mark [7] stands for this setting: JMI-991193, CaMHB, 24 h incubation.
The mark [8] stands for this setting: HAV#001, ATCC 29213, CaMHB, 24 h incubation.
Where [9] appears, read: Clinical (cfr), CaMHB, 24 h incubation.
Where [10] appears, read: MMX 3035, CaMHB, 24 h incubation.
Where [11] appears, read: JMI-990536, CaMHB, 24 h incubation.

For `CC(C)C[C@@H]1CCO[C@@H]2[C@H](CN[C@@H]2C(=O)N[C@H]2[C@H]3O[C@H](SCCC/C=C\[C@H]2C)[C@H](O)[C@@H](O)[C@H]3O)C1` [FSA1609096, (4S,5aS,8S,8aR)-4-isobutyl-N-((1R,8R,9R,10R,11R,12S,13R,Z)-11,12,13-trihydroxy-8-methyl-14-oxa-2-thiabicyclo[8.3.1]tetradec-6-en-9-yl) octahydro-2H-oxepino[2,3-c]pyrrole-8-carboxamide formate salt], the MIC was 1 µg/mL in assay [1]; 2 µg/mL in assay [2] (setting [5]); 0.125 µg/mL with E. coli lptD mutant; 0.25 µg/mL with E. coli ΔtolC; at most 0.06 µg/mL in assay [3] (setting [6]); 0.125 µg/mL in the assay on E. faecium JMI-990536. The MIC was 8 µg/mL in the assay on K. pneumoniae JMI-991193 (setting [7]), at most 0.06 µg/mL in assay [4] (setting [8]), 0.25 µg/mL in the assay with S. aureus Clinical (cfr) (setting [9]) and 0.25 µg/mL in the assay on S. aureus MMX 3035 (setting [10]).
As for `CC(C)C[C@@H]1CCO[C@@H]2[C@H](CN[C@@H]2C(=O)N[C@@H]2C/C=C\C[C@@H](c3c[nH]nn3)S[C@H]3O[C@H]2[C@H](O)[C@H](O)[C@H]3O)C1` [FSA1607090, (4S,5aS,8S,8aR)-4-isobutyl-N-((1R,3S,8R,9R,10R,11S,12R,Z)-10,11,12-trihydroxy-3-(1H-1,2,3-triazol-4-yl)-13-oxa-2-thiabicyclo[7.3.1]tridec-5-en-8-yl) octahydro-2H-oxepino[2,3-c]pyrrole-8-carboxamide formate salt], the MIC in [1] was above 64 µg/mL; in [2] (setting [5]) it was above 64 µg/mL; with E. coli lptD mutant, 8 µg/mL; in the assay with E. coli ΔtolC, 4 µg/mL; in assay [3] (setting [6]), 32 µg/mL; with E. faecium JMI-990536 (setting [11]) it was 16 µg/mL. For the same compound, the MIC in the assay on K. pneumoniae JMI-991193 (setting [7]) is above 64 µg/mL; in [4] (setting [8]) it was 8 µg/mL; with S. aureus Clinical (cfr) (setting [9]), above 64 µg/mL; in the assay with S. aureus MMX 3035 (setting [10]), 32 µg/mL.
In the case of `CC(C)C[C@@H]1CCO[C@@H]2[C@H](CN[C@@H]2C(=O)N[C@@H]2C/C=C\[C@@H](CN3CCOCC3)CS[C@H]3O[C@H]2[C@H](O)[C@H](O)[C@H]3O)C1` [FSA1608036, (4S,5aS,8S,8aR)-4-isobutyl-N-((1R,4S,8R,9R,10R,11S,12R,Z)-10,11,12-trihydroxy-4-(morpholinomethyl)-13-oxa-2-thiabicyclo[7.3.1]tridec-5-en-8-yl) octahydro-2H-oxepino[2,3-c]pyrrole-8-carboxamide formate salt], the MIC amounted to 16 µg/mL in assay [1]; 1 µg/mL in [2] (setting [5]); 0.25 µg/mL in the assay on E. coli ΔtolC; 1 µg/mL in [3] (setting [6]); 1 µg/mL with E. faecium JMI-990536 (setting [11]); 8 µg/mL in the assay with K. pneumoniae JMI-991193 (setting [7]). The results for the MIC (in assay [4] (setting [8]); in the assay on S. aureus Clinical (cfr) (setting [9]); with S. aureus MMX 3035 (setting [10])) were 0.5 µg/mL, 8 µg/mL and 16 µg/mL, respectively.
With `CC(C)C[C@@H]1CCO[C@@H]2[C@H](CN[C@@H]2C(=O)N[C@H]2[C@H]3O[C@H](S[C@H](c4cn(-c5ccc(F)cc5)nn4)C/C=C\[C@H]2C)[C@H](O)[C@@H](O)[C@H]3O)C1` [FSA1609037, (4S,5aS,8S,8aR)—N-((1R,3S,7R,8R,9R,10R,11S,12R,Z)-3-(1-(4-fluorophenyl)-1H-1,2,3-triazol-4-yl)-10,11,12-trihydroxy-7-methyl-13-oxa-2-thiabicyclo[7.3.1]tridec-5-en-8-yl)-4-isobutyloctahydro-2H-oxepino[2,3-c]pyrrole-8-carboxamide formate salt], the MIC turned out to be 1 µg/mL in assay [2]; 0.5 µg/mL in the assay with E. coli lptD mutant; 0.5 µg/mL with E. coli ΔtolC; 0.25 µg/mL in assay [3]; 16 µg/mL with K. pneumoniae JMI-991193; 0.5 µg/mL in assay [4]. Also, the MIC with S. aureus Clinical (cfr) came to 1 µg/mL; in the assay with S. aureus MMX 3035, 0.5 µg/mL.
Turning to `CC(C)C[C@@H]1CCO[C@@H]2[C@H](CN[C@@H]2C(=O)N[C@@H]2C/C=C\[C@@H](CO)CS[C@H]3O[C@H]2[C@H](O)[C@H](O)[C@H]3O)C1` [FSA1608024, (4S,5aS,8S,8aR)-4-isobutyl-N-((1R,4S,8R,9R,10R,11S,12R,Z)-10,11,12-trihydroxy-4-(hydroxymethyl)-13-oxa-2-thiabicyclo[7.3.1]tridec-5-en-8-yl) octahydro-2H-oxepino[2,3-c]pyrrole-8-carboxamide formate salt], the MIC in assay [1] is above 64 µg/mL; in assay [2] (setting [5]), 16 µg/mL; in the assay with E. coli lptD mutant, 4 µg/mL; in assay [3] (setting [6]) it was 2 µg/mL; in the assay with E. faecium JMI-990536 (setting [11]), 2 µg/mL; in the assay with K. pneumoniae JMI-991193 (setting [7]), above 64 µg/mL. For the same compound, the results for the MIC (in [4] (setting [8]); in the assay on S. aureus Clinical (cfr) (setting [9]); in the assay on S. aureus MMX 3035 (setting [10])) were 4 µg/mL, 64 µg/mL and 64 µg/mL, respectively.
With `CC(C)C[C@@H]1CCO[C@@H]2[C@H](CN[C@@H]2C(=O)N[C@@H]2C/C=C/[C@@H](O)CS[C@H]3O[C@H]2[C@H](O)[C@H](O)[C@H]3O)C1` [FSA1608016, (4S,5aS,8S,8aR)-4-isobutyl-N-((1R,4R,8R,9R,10R,11S,12R,E)-4,10,11,12-tetrahydroxy-13-oxa-2-thiabicyclo[7.3.1]tridec-5-en-8-yl) octahydro-2H-oxepino[2,3-c]pyrrole-8-carboxamide formate salt], the MIC in assay [1] is above 64 µg/mL; in [2] (setting [5]), 64 µg/mL; in the assay on E. coli lptD mutant, 8 µg/mL; in assay [3] (setting [6]) it was 8 µg/mL; in the assay on E. faecium JMI-990536 (setting [11]), 8 µg/mL; with K. pneumoniae JMI-991193 (setting [7]) it was above 64 µg/mL. Moreover, the MIC in assay [4] (setting [8]) was 8 µg/mL; in the assay on S. aureus Clinical (cfr) (setting [9]), above 64 µg/mL; in the assay with S. aureus MMX 3035 (setting [10]), above 64 µg/mL.
Regarding `CC(C)C[C@@H]1CCO[C@@H]2[C@H](CN[C@@H]2C(=O)N[C@@H]2C/C=C\[C@@H](CN3CCCC3)CS[C@H]3O[C@H]2[C@H](O)[C@H](O)[C@H]3O)C1` [FSA1608037, (4S,5aS,8S,8aR)-4-isobutyl-N-((1R,4S,8R,9R,10R,11S,12R,Z)-10,11,12-trihydroxy-4-(pyrrolidin-1-ylmethyl)-13-oxa-2-thiabicyclo[7.3.1]tridec-5-en-8-yl) octahydro-2H-oxepino[2,3-c]pyrrole-8-carboxamide formate salt], the MIC in assay [1] is above 64 µg/mL; in assay [2] (setting [5]), above 64 µg/mL; in the assay on E. coli lptD mutant, 4 µg/mL; in assay [3] (setting [6]) it was 16 µg/mL; in the assay with E. faecium JMI-990536 (setting [11]), 16 µg/mL; with K. pneumoniae JMI-991193 (setting [7]), above 64 µg/mL. In addition, the MIC in assay [4] (setting [8]) is 32 µg/mL; with S. aureus Clinical (cfr) (setting [9]), above 64 µg/mL; in the assay with S. aureus MMX 3035 (setting [10]), above 64 µg/mL.
`CC(C)C[C@@H]1CCO[C@@H]2[C@H](CN[C@@H]2C(=O)N[C@@H]2C/C=C/[C@@H](CO)CSC3O[C@H]2C(O)C(O)[C@H]3O)C1` (single isomer, unassigned) [FSA1608025A, formate salt]: the MIC in assay [1] is above 64 µg/mL; in assay [2] (setting [5]), 32 µg/mL; with E. coli lptD mutant, 8 µg/mL; in assay [3] (setting [6]) it was 4 µg/mL; in the assay on E. faecium JMI-990536 (setting [11]), 8 µg/mL; in the assay with K. pneumoniae JMI-991193 (setting [7]) it was above 64 µg/mL. The MIC in assay [4] (setting [8]) came to 4 µg/mL; in the assay with S. aureus Clinical (cfr) (setting [9]), 64 µg/mL; with S. aureus MMX 3035 (setting [10]), 64 µg/mL.
